Results from patent US20140248411A1, “SWEETNESS ENHANCER” (KOREA FOOD RESEARCH INSTITUTE, priority 2011, published 2014).

Tests used:
Type in all cases: in vivo
[1] = Sensory evaluation, sweet taste enhancement of LHe with sodium cyclamate (15-point scale)
Description: In order to verify specificity of the sweet taste enhancement effect of LHe, a sweetener except sucrose was used as a sweet taste reference sample. […] In the experiment, panels well trained in the basic tastes participated, and the presented samples were maintained at room temperature. After having a taste of the reference sample, the mouth was rinsed with water, and then after having a taste of the sample, intensity of each basic taste was evaluated.
In order to verify specificity of the sweet taste enhancement effect of LHe, a sweetener, except sucrose, was used as a sweet taste reference sample.

[2] = Sensory evaluation on Met-Asn peptide
Description: Sensory evaluation was conducted to validate the role of Met-Asn peptide itself, without sugar binding thereto, on the sweetening effect. […] When a Met-Asn peptide+5% sucrose solution was presented as a sample, the sweet taste intensity thereof was 5.00±0.23, which was not shown to have a significant difference from that of the 5% sucrose solution. […] Accordingly, the sweetness effect of the fraction containing the Met-Asn peptide may be due to the sugar structure binding.

[3] = Sensory evaluation, sweet taste enhancement of LHe with sucrose (15-point scale)
Description: In order to more accurately verify the sweet taste enhancement effect of LHe, 2, 5, 10, and 15% sucrose solutions were used as sweet taste reference samples. An LHe solution (300 μg/mL) and an LHe+5% sucrose solution were presented as samples, and sweet taste intensities thereof were measured by a 15-point scale method. Here, the sweet taste intensities of sweet taste reference samples, 2, 5, 10, and 16% sucrose solutions were presented to be 2, 5, 10, and 15 points, respectively, according to the method of Meilgaard et al.
In order to more accurately verify the sweet taste enhancement effect of LHe, 2, 5, 10, and 15% sucrose solutions were used as sweet taste reference samples. A 300 μg/mL LHe solution and a 300 μg/mL LHe+5% sucrose solution were presented as samples, and sweet taste intensities thereof were measured by a 15-point scale method. Here, the sweet taste reference samples, 2, 5, 10, and 16% sucrose solutions were respectively presented to be 2, 5, 10, and 15 points according to the method of Meilgaard et al. (1987).

## O=S(=O)(O)NC1CCCCC1 [cyclamate, sodium cyclamate]
[1]; 0.056% cyclamate reference sample
  sweet taste intensity: 2.00±0.00
[1]; 0.14% cyclamate reference sample
  sweet taste intensity: 5.00±0.00

## OC[C@H]1O[C@@](CO)(O[C@H]2O[C@H](CO)[C@@H](O)[C@H](O)[C@H]2O)[C@@H](O)[C@@H]1O [sucrose]
[2]; 5% sucrose reference sample
  sweet taste intensity: 5.00±0.00
[3]; 2% sucrose reference sample
  sweet taste intensity: 2.00±0.00
[3]; 5% sucrose reference sample
  sweet taste intensity: 5.00±0.00

## Met-Asn [Met-Asn peptide]
[2]; Met-Asn peptide + 5% sucrose solution
  sweet taste intensity: 5.00±0.23
[2]; Met-Asn peptide itself, without sugar binding
  sweet taste intensity: 0.13±0.04
